Experimental findings from patent US8246942B2, “Microbicidal compositions” (LANXESS Deutschland GmbH, priority 2000, dated 2012) are described below.

The test system of the test is Pseudomonas fluorescens. As to the kind of experiment: Determination of the minimum inhibitory concentration (MIC) against Pseudomonas fluorescens. It is filed as cell-based. The following applies: for MIC: Pseudomonas fluorescens, read-out: MIC value against Pseudomonas fluorescens. An excerpt: The observed synergism of the active compound mixtures, claimed in the present application, consisting of o-phenylphenol (OPP) and other bactericides can be determined by the following mathematical equation (see F. C. Kull, P. C. Elisman, H. D. Sylwestrowicz and P. K. Mayer, Appl. Microbiol. 9, 538 (1960):
[formula] where • Qa=the amount of component A in the active compound mixture which achieves the desired effect, i.e. no microbial growth. • QA=the amount of component A which, when used on its own, suppresses the growth of the microorganisms. • Qb=the amount of component B in the active compound mixture which suppresses the growth of the microorganisms. • Qb=the amount of component B which, when used on its own, suppresses the growth of the microorganisms.
A synergistic index of <1 indicates a synergistic effect for the active compound mixture.
Determination of the Minimum Inhibitory Concentration (MIC) of Compositions According to the Invention Against Pseudomonas fluerescens

The mark [1] stands for this setting: Example 2, OPP/Tektamer 38, weight ratios.

Like-named read-outs stand apart in the source and are kept apart here.

Consider `O=[N+]([O-])C(Br)(CO)CO` [BNPD, 2-bromo-2-nitro-1,3-propanediol], for which, for the setting “Example 1, OPP/BNPD (bronopol), weight ratios”, the MIC amounted to 35 mg/L.
Take `Cn1sccc1=O` [MIT, 2-methyl-2H-isothiazol-3-one]: the MIC is 30 mg/L.
`Oc1ccccc1-c1ccccc1` [OPP, o-phenylphenol]: the minimal inhibitory concentration (MIC) was 500 mg/L. Moreover, the “MIC value against Pseudomonas fluorescens” value under setting [1] was 500 mg/L. Also, the “MIC value against Pseudomonas fluorescens” value (Example 3, OPP/MIT, weight ratios) came to 500 mg/L.
Turning to `N#CCCC(Br)(C#N)CBr` (stereo not drawn) [Tektamer 38, 1,2-dibromo-2,4-dicyanobutane], under setting [1], the minimal inhibitory concentration (MIC) is 100 mg/L.
